Patent US20260317374A1, “Carrier Peptide Fragment and Use Thereof” (TOAGOSEI CO., LTD., priority 2022, published 2026)
FAM = 5(6)-carboxyfluorescein

Test system: NSC-34 cells (mouse motor neuron-like hybrid cell line)
Assay: Cell membrane permeability of sample in NSC-34 cells by flow cytometry
Type: cell-based
Conditions: for median fluorescence intensity (MFI): 10 μM sample (FAM concentration 10 μM), 0.5% DMSO, 20 hours at 37° C., 5% CO2, detector FL2
Method: In Example 1, a construct shown in Table 1 was prepared as a sample 1. Specifically, a construct formed of a synthetic peptide with the amino acid sequence set forth in SEQ ID No.: 1, in which an α-amino group of a lysine residue of an N-terminus is acetylated, and FAM (C21H12O7: 5(6)-carboxyfluorescein, molecular weight 376.3, excitation wavelength 495 nm, fluorescence wavelength 520 nm) corresponding to fluorescent dye bonded to the C-terminus of the synthetic peptide was prepared. The construct was diluted in dimethyl sulfoxide (DMSO) to prepare a sample solution 1 with a sample concentration of 2 mM.
As the eukaryotic cells, NSC-34 cells (mouse motor neuron-like hybrid cell line) were used and the cell membrane permeability of the sample 1 was evaluated. In Example 1, the prepared sample solution 1 was used, and in Example 2, the FAM solution was used.
The NSC-34 cell was cultured in 10% fetal bovine serum (FBS)-containing Dulbecco's modified Eagle's medium (DMEM (Cat No. 044-29765, manufactured by FUJIFILM Wako Pure Chemical Corporation)), which is a culture medium.
The NSC-34 cell that adhered to a culture plate was cleaned with PBS and then, a 0.25%-trypsin/EDTA solution was added thereto, and incubation was performed for three minutes at 37° C. After the incubation, the aforementioned 10% FBS-containing DMEM was added to deactivate trypsin and then, five-minute centrifugal separation was performed at 150×g to precipitate the cells. After the supernatant generated by the centrifugal separation was removed, the 10% FBS-containing DMEM was added to the precipitate (cell pellet) to prepare a cell suspension of about 1×10^5 cells/mL. The cell suspension was added by 1 mL to a well of a commercially available six-hole (well) plate (manufactured by AGC TECHNO GLASS Co., Ltd.) so as to seed the cell (about 1×10^5 cells/well). In addition, the 2 mM sample solution 1 was diluted with the 10% FBS-containing DMEM to prepare the sample solution 1 in which the concentration of the sample 1 was 20 μM. Then, 1 mL of the 20 μM sample solution 1 was added to the well (that is, so that the concentration of the sample 1 became […] and the DMSO concentration became 0.5% in the culture solution in the well). After that, the cell was incubated for 20 hours at 37° C. under a 5% CO2 condition.
After the 20-hour incubation, the culture supernatant was removed from the well and the cells in the well were cleaned twice with 1 mL of PBS. Next, 100 μL of the 0.25% trypsin/EDTA solution was added to the well and the incubation was performed for three minutes at 37° C. After the incubation, 900 µL of the 10% FBS-containing DMEM was added to the well to deactivate the trypsin. Subsequently, the cell suspension in the well was transferred to a tube and the cells were collected. After that, pre-washing was performed additionally, so that the cells remaining in the well were collected in the tube. This tube was subjected to five-minute centrifugal separation at 4° C. under a condition of 210×g. After the centrifugal separation, the supernatant was removed and the precipitate (cell pellet) was suspended (cleaned) with 1 mL of PBS, which was followed by the centrifugal separation under the same condition as that described above. […]
Regarding the obtained cells (cell pellet), the cell membrane permeability of the sample 1 was analyzed using a flow cytometer. […]

Substance: SEQ ID No.: 1: carrier peptide fragment; synthetic peptide with amino acid sequence KFRAQRRW
- cell membrane permeability of carrier peptide fragment (concluded from the FAM construct (Example 1 vs Example 2)): achieves the cell membrane permeability

Substance: Example 1: synthetic peptide of SEQ ID No.: 1 with N-terminal lysine α-amino group acetylated and FAM bonded to the C-terminus (Ac-KFRAQRRW-{FAM})
- median fluorescence intensity (MFI): 15.8
- histogram position (flow cytometer, FIG. 1) (Example 1 compared to Example 2 (FAM), 20 hours): shifted to the right side compared to the histogram according to Example 2
- cell membrane permeability (construct vs FAM alone, FIG. 1): higher cell membrane permeability than FAM alone

Substance: 5(6)-carboxyfluorescein [Example 2, reference compound]
- median fluorescence intensity (MFI): 7.58
